Experimental data: PMC12177781, “Chalcogen Derivatives for the Treatment of African Trypanosomiasis: Biological Evaluation of Thio- and Seleno-Semicarbazones and Their Azole Derivatives” (ACS Omega, 2025)
Where “and” joins values, the source holds several entries; their conditions need not be identical. Equal values may be shown once. Read-outs that look alike come from different tables or passages of the source.

What was measured:
[1] = DPPH radical scavenging (antioxidant) assay; details: after 2 h, mean ± SEM
HepG2 cells = experiment: HepG2 cytotoxicity, CellTiter-Glo, 48 h; details: for inhibition at 10 µM: Homo sapiens, HepG2, read-out: HepG2 inhibition (%); for HepG2 inhibition (%): growth inhibition at 10 µM, ± SD
[2] = HepG2 cytotoxicity, CellTiter-Glo, 48 h; details: human, HepG2 cells
HEK293 cells = experiment: HEK293 cytotoxicity, CellTiter-Glo, 48 h; details: for inhibition at 10 µM: Homo sapiens, HEK293, read-out: HEK293 inhibition (%); for HEK293 inhibition (%): growth inhibition at 10 µM, ± SD
[3] = HEK293 cytotoxicity, CellTiter-Glo, 48 h; details: human, HEK293 cells
[4] = test system: T. brucei brucei Lister 427; experiment: T. b. brucei Lister 427 bloodstream-form growth inhibition, SYBR Green viability assay, 72 h; format: cell-based, Trypanosoma brucei brucei
[5] = target: T. brucei cathepsin L-like protease (TbrCATL) (Trypanosoma brucei rhodesiense, UniProt Q95PM0); experiment: TbrCATL inhibition assay, Z-FR-AMC substrate; format: biochemical; details: for SI TbrCATL: IC50 hCatL/IC50 TbrCATL; for IC50: mean ± SD, two experiments in triplicate (n = 6)
Description: (§1) All experiments were performed in a 384-well black microplate, using a Synergy HTX (Biotek) plate reader at 25 °C with absorption/emission wavelengths of 360/460 nm. Assays were performed in triplicate wells and DMSO was used as a vehicle control. Enzyme activity was measured and normalized to DMSO controls, and the inhibitor E-64 (10 μM) was used as a positive control for all assays. Experiments were performed in triplicate, with at least two independent assays (n = 6 data points). IC50 values were determined through nonlinear regression. The data obtained were analyzed using GraphPad Prism 9.0 (GraphPad Software, La Jolla, California, US).
The screening assay was performed using 0.5 nM of TbrCATL diluted in 0.1 M sodium acetate, 1 mM dithiothreitol (DTT), and 0.01% Triton X-100, pH 5.5. TbrCATL was expressed and purified as described. Enzyme the compound (10 μM), were incubated for 10 min at room temperature. Then the substrate, Z-Phe-Arg-amidomethylcoumarin (Z-FR-AMC; Sigma-Aldrich, C9521), was added (30 μL diluted in the same assay buffer) to yield a final concentration of 2.5 μM and the assay allowed to proceed for 10 min. […] For those compounds inhibiting enzyme activity by >85%, DR assays were performed over 15 2-fold serial dilutions starting at 0.5 or 20 μM.

[6] = target: T1, human cathepsin L (hCatL) (Homo sapiens, UniProt P07711); experiment: hCatL inhibition assay, Z-FR-AMC substrate; format: biochemical; details: mean ± SD, two experiments in triplicate (n = 6)
T1 construct: purchased R&D Systems 952-CY
Description: as §1
Recombinant hCatL was purchased from R&D Systems (952-CY) and activated according to the manufacturers protocol. This enzyme, hCatL, is used to test compounds’ selectivity because it is the human homologue of TbrCATL. The assay was modified from, using 25 pM of the enzyme diluted in 40 mM sodium acetate, 5 mM DTT, 100 mM NaCl, 1 mM EDTA and 0.01% Triton X-100, pH 5.5. Enzyme and compound (10 μM), were incubated for 30 min at room temperature. Then Z-FR-AMC was added (30 μL diluted in the same assay buffer) to yield a final concentration of 25 μM and the assay allowed to proceed for 10 min. DR assays were performed over 15 2-fold serial dilutions starting at 0.5 or 20 μM.

in vitro [7] = details: human, CC50 HEK293 (μM)
in vitro [8] = details: human, CC50 HepG2 (μM)
C2C12 cells = details: read-out: Toxicity CC50 C2C12 cells; cited from earlier work
cruzain (Cz) = details: cited from earlier work
T. cruzi CAI/72 = details: cited from earlier work
[9] = pharmacokinetic study; ref previous work; cited from earlier work
[10] = Trypanosoma brucei, growth inhibition at 10 µM, ± SD
[11] = at 10 μM, read-out: TbrCATL inhibition (%)
[12] = growth inhibition at 10 µM, ± SD
[13] = read-out: TbrCATL inhibition (%), at 10 μM
[14] = Trypanosoma brucei, three independent experiments in duplicate (n = 6) ± SD, read-out: EC50 T. brucei
[15] = growth inhibition at 10 µM, ± SD, 10 µM

T1 sequence (P07711 114-333): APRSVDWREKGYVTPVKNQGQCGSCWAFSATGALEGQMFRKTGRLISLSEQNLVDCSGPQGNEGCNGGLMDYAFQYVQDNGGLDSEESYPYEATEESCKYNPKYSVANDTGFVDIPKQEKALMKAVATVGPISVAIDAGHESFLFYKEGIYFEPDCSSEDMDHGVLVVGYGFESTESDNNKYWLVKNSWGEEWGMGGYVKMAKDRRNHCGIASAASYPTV
T. brucei cathepsin L-like protease (TbrCATL), sequence (Q95PM0 1-450): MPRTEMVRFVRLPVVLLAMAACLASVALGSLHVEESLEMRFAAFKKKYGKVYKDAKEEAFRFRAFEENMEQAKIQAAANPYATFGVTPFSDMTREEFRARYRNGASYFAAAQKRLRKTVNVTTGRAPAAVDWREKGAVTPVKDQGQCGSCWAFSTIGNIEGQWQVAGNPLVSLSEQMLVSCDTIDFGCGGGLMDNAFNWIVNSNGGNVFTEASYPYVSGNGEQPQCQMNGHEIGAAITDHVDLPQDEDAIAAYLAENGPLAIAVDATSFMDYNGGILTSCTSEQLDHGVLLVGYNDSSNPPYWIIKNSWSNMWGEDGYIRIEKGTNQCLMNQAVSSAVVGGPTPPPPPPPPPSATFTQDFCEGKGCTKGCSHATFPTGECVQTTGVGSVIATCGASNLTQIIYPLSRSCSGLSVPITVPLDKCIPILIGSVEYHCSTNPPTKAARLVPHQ

Row | Structure (SMILES) | % inhibited DPPH ([1]; 0.015 mg/ml) [%] | % inhibited DPPH ([1]; 0.03 mg/ml) [%] | % inhibited DPPH ([1]; 0.06 mg/ml) [%] | inhibition at 10 µM (HepG2 cells) [%] | inhibition at 10 µM (HEK293 cells) [%] | inhibition at 10 µM [4, 10] [%] | IC50 [6] [nM] | SI TbrCATL [5] | TbrCATL inhibition (%) ([5]; at 10 μM) | inhibition at 10 µM [5, 13] [%] | T. brucei inhibition (%) [4, 15] [%] | also measured
1 | O=C1O[C@H]([C@@H](O)CO)C(O)=C1O [ASC, ascorbic acid, reference compound] | 76.00 ± 3.52 | 80.33 ± 0.33 | 80.33 ± 0.67 | – | – | – | – | – | – | – | – | –
2 | CC(C)C[C@H](NC(=O)[C@H](Cc1ccccc1)NC(=O)c1cnccn1)B(O)O [Bortezomib, reference compound] | – | – | – | 100 ± 1 | 100 ± 2 | – | – | – | – | – | – | CC50 at 48 h [2]: 15 ± 3 nM; CC50 at 48 h [3]: 15 ± 2 nM
3 | N=C(N)c1ccc(OCCCCCOc2ccc(C(=N)N)cc2)cc1 [Pentamidine, reference compound] | – | – | – | – | – | – | – | – | – | – | – | inhibition at 10 µM ([4]; Trypanosoma brucei): 100 ± 2%; EC50 ([4]; Trypanosoma brucei, read-out: EC50 T. brucei (μM)): 0.014 ± 0.002 µM
4 | C/C(=N\Nc1nc(C)cs1)c1ccc(C)cc1 [SC1] | 55.00 ± 1.53 | 54.33 ± 1.86 | 60.00 ± 4.16 | 4 ± 15 | 24 ± 7 | 30 ± 6 | – | – | – | – | – | inhibition at 10 µM [5, 11]: 32.9%
5 | COc1ccc(C(C)=NNc2nc(C)cs2)cc1.Cl [SC2] | – | – | – | – | – | – | – | – | – | – | – | HepG2 inhibition (%) (HepG2 cells): 6 ± 3%; T. brucei inhibition (%) [4, 12]: 27 ± 5%; HEK293 inhibition (%) (HEK293 cells): 33 ± 8%
6 | C/C(=N\Nc1nc(C)cs1)c1ccc(Br)cc1 [SC3] | 68.00 ± 3.06 | 69.33 ± 2.33 | 67.00 ± 2.31 | 46 ± 7 | 64 ± 2 | 38 ± 9 | – | – | – | – | – | inhibition at 10 µM [5, 11]: 54%
7 | C/C(=N\Nc1nc(C)cs1)c1cccc([N+](=O)[O-])c1 [SC5] | 66.33 ± 1.86 | 68.67 ± 2.03 | 66.67 ± 1.86 | 17 ± 2 | 30 ± 3 | 40 ± 8 | 4070 ± 383 | 49 | 87.70 | > 85 | – | IC50 ([5]; read-out: IC50 TbrCATL): 82.6 ± 4.05 nM
8 | C/C(=N\Nc1nc(C)cs1)C12CC3CC(CC(C3)C1)C2.Cl [SC11] | – | – | – | – | – | – | – | – | – | – | – | HepG2 inhibition (%) (HepG2 cells): 0 ± 13%; T. brucei inhibition (%) [4, 12]: 19 ± 8%; HEK293 inhibition (%) (HEK293 cells): 39 ± 3%
9 | C/C(=N\NC(N)=S)c1ccc(C)cc1 [SO1] | – | – | 45.00 ± 8.33 | 50 ± 4 | 30 ± 3 | 44 ± 7 | – | – | – | – | – | inhibition at 10 µM [5, 11]: 80%
10 | C/C(=N\NC(N)=S)c1ccc(Br)cc1 [SO3] | – | – | 29.33 ± 24.77 | 65 ± 4 | 76 ± 2 | 28 ± 4 | 136 ± 19.9 | 19 | 95.54 | > 85 | – | IC50 ([5]; read-out: IC50 TbrCATL): 7.33 ± 0.27 nM
11 | C/C(=N\NC(N)=S)c1cccc([N+](=O)[O-])c1 [SO5] | – | – | 23.33 ± 19.46 | 39 ± 9 | 14 ± 9 | 31 ± 5 | 20.7 ± 4.36 | 4 | 100.00 | > 85 | – | IC50 ([5]; read-out: IC50 TbrCATL): 5.83 ± 0.35 nM
12 | C/C(=N\Nc1nc(C)c[se]1)c1ccc(C)cc1 [SeC1] | 71.67 ± 2.85 | 71.67 ± 2.40 | 72.33 ± 2.33 | 65 ± 9 | 77 ± 2 | 72 ± 6 | – | – | 51.07 | – | > 70 | EC50 [4, 14]: 9.8 ± 0.63 µM; TbrCATL inhibition (%) ([5]; at 10 μM, listed as Se C1, 10 µM): ≤ 85%; CC50 (in vitro [7]): 12 ± 4.94 µM; CC50 (in vitro [8]): 11 ± 0.88 µM
13 | C/C(=N\Nc1nc(C)c[se]1)c1ccc(Br)cc1 [SeC3] | 35.00 ± 18.82 | 71.00 ± 3.06 | 75.67 ± 1.45 | 80 ± 2 | 88 ± 3 | – | 793 ± 66.5 | 4 | 101.02 | > 85 | 99 ± 2 | EC50 [4, 14]: 6.04 ± 0.72 µM; T. brucei inhibition (%) ([4]; growth inhibition at 10 µM, ± SD, listed as Se C3, 10 µM): > 70%; IC50 ([5]; IC50 TbrCATL (nM)): 201.7 ± 0.92 nM; CC50 (in vitro [7]): 5.9 ± 1.22 µM; CC50 (C2C12 cells): > 10000 nM; CC50 (in vitro [8]): 4.68 ± 0.14 µM
14 | C/C(=N\Nc1nc(C)c[se]1)c1cccc([N+](=O)[O-])c1 [SeC5] | 77.33 ± 0.88 | 78.00 ± 1.73 | 78.33 ± 1.76 | 77 ± 6 | 81 ± 7 | – | 175 ± 43.7 | 25 | 98.02 | > 85 | 100 ± 2 | EC50 [4, 14]: 10.5 ± 1.02 µM; T. brucei inhibition (%) ([4]; growth inhibition at 10 µM, ± SD, listed as Se C5, 10 µM): > 70%; IC50 (cruzain (Cz)): 8.99 ± 5.56 nM; CC50 (in vitro [7]): 9 ± 1.36 µM; CC50 (C2C12 cells): > 10000 nM; EC50 (T. cruzi CAI/72): 310 ± 180 nM; oral bioavailability [9]: favorable oral bioavailability; CC50 (in vitro [8]): 11.3 ± 0.97 µM
15 | C/C(=N\Nc1nc(C)c[se]1)C12CC3CC(CC(C3)C1)C2 [SeC11] | – | – | – | – | – | – | – | – | – | – | – | HepG2 inhibition (%) (HepG2 cells): 66 ± 2%; T. brucei inhibition (%) [4, 12]: 37 ± 0%; HEK293 inhibition (%) (HEK293 cells): 64 ± 10%
16 | C/C(=N\NC(N)=[Se])c1ccc(C)cc1 [SeO1] | 45.67 ± 9.56 | 78.00 ± 1.16 | 77.33 ± 1.76 | 80 ± 1 | 100 ± 1 | – | 84.5 ± 17 | 5 | 97.08 | > 85 | 100 ± 1 | EC50 [4, 14]: 0.98 ± 0.12 µM; T. brucei inhibition (%) ([4]; growth inhibition at 10 µM, ± SD, listed as Se O1, 10 µM): > 70%; IC50 ([5]; IC50 TbrCATL (nM)): 17.9 ± 3.62 nM; CC50 (in vitro [7]): 4.27 ± 0.22 µM; CC50 (in vitro [8]): 4.17 ± 0.6 µM
17 | C/C(=N\NC(N)=[Se])c1cccc([N+](=O)[O-])c1 [SeO5] | 22.00 ± 17.67 | 63.33 ± 6.89 | 75.67 ± 1.67 | 85 | 100 | – | 0.51 ± 0.08 | 2 | 101.47 | > 85 | 100 ± 1 | EC50 [4, 14]: 5.83 ± 0.72 µM; T. brucei inhibition (%) ([4]; growth inhibition at 10 µM, ± SD, listed as Se O5, 10 µM): > 70%; IC50 ([5]; IC50 TbrCATL (nM)): 0.51 nM and 0.3 nM; IC50 (cruzain (Cz)): 0.91 ± 0.18 nM; CC50 (in vitro [7]): 2.29 ± 0.26 µM; CC50 (C2C12 cells): > 10000 nM; CC50 (in vitro [8]): 5.54 ± 1.47 µM
18 | C/C(=N\NC(N)=[Se])C12CC3CC(CC(C3)C1)C2 [SeO11] | – | – | – | – | – | – | – | – | – | – | 100 ± 1 | HepG2 inhibition (%) (HepG2 cells): 66 ± 5%; CC50 (HepG2 cells; read-out: CC50 HepG2, three independent experiments in duplicate): 6010 ± 690 nM; T. brucei inhibition (%) ([4]; growth inhibition at 10 µM, ± SD, listed as Se O11, 10 µM): > 70%; EC50 ([4]; three independent experiments in duplicate (n = 6) ± SD, read-out: EC50 T. brucei): 5.16 ± 1.06 µM; HEK293 inhibition (%) (HEK293 cells): 100 ± 4%; CC50 (HEK293 cells; read-out: CC50 HEK293, three independent experiments in duplicate): 10500 ± 360 nM
19 | Cc1c(C)c2c(c(C)c1O)CCC(C)(C(=O)O)O2 (stereo not shown) [TRO, Trolox, reference compound] | 79.33 ± 1.33 | 79.33 ± 0.882 | 79.67 ± 0.67 | – | – | – | – | – | – | – | – | –
